Assay [1] concerns Candida albicans ATCC 10231. Description: Synergy test: high resolution MIC microtiter plate assay, Potato Dextrose Broth. The class given is cell-based. The following applies: C. albicans ATCC 10231, PDB, contact time 48 hours; for SI (Synergy Index, Qa/QA+Qb/QB): <1 synergy; for MIC: Candida albicans, ATCC10231, 25 °C. From the text:
(§1) One measure of synergism is the industrially accepted method described by Kull, F. C.; Eisman, P. C.; Sylwestrowicz, H. D. and Mayer, R. L., in Applied Microbiology 9:538-541 (1961), using the ratio determined by the formula:
(§2) Qa/QA+Qb/QB=Synergy Index (“SI”)
(§3) wherein: • QA=concentration of compound A (first component) in ppm, acting alone, which produced an end point (MIC of Compound A). • Qa=concentration of compound A in ppm, in the mixture, which produced an end point. • QB=concentration of compound B (second component) in ppm, acting alone, which produced an end point (MIC of Compound B). • Qb=concentration of compound B in ppm, in the mixture, which produced an end point.
(§4) When the sum of Qa/QA and Qb/QB is greater than one, antagonism is indicated. […] The lower the SI, the greater is the synergy shown by that particular mixture. The minimum inhibitory concentration (MIC) of a microbicide is the lowest concentration tested under a specific set of conditions that prevents the growth of the tested microorganisms.
(§5) Synergy tests were conducted using standard microtiter plate assays with media designed for optimal growth of the test microorganism. Potato Dextrose Broth (PDB medium) was used for testing yeast and mold. In this method, a wide range of combinations of microbicides and other personal care raw materials was tested by conducting high resolution MIC assays in the presence of lactic acid. High resolution MICs were determined by adding varying amounts of microbicide to one column of a microtitre plate and doing subsequent […] dilutions using an automated liquid handling system to obtain a series of closely spaced endpoints.
(§6) The synergy of the combinations of the present invention was determined against a yeast, Candida albicans (C. albicans ATCC 10231) and a mold, Aspergillus brasiliensis (A. brasiliensis ATCC 16404). The yeast and mold were used at concentrations of 5×10^5 cells per mL. These microorganisms are representative of natural contaminants in many consumer and industrial applications.
(§7) In this test, First Component (A) was lactic acid and the Second Component (B) was phenethyl alcohol.
• Candida albicans • ATCC 10231 • Potato Dextrose Broth • Contact Time=48 hours

Assay [2] concerns Aspergillus brasiliensis ATCC 16404. Described as above. The class given is cell-based. The following applies: A. brasiliensis ATCC 16404, PDB, contact time 3 days; for SI (Synergy Index, Qa/QA+Qb/QB): <1 synergy; for MIC: Aspergillus brasiliensis, ATCC16404, 72 h, 25 °C.
Source text: as §1, §2, §3, §4, §5, §6, §7
• Aspergillus brasiliensis • ATCC 16404 • Potato Dextrose Broth • Contact Time=3 days

Where [3] appears, read: read-out: MIC for lactic acid alone (QA).
Where [4] appears, read: read-out: MIC for phenethyl alcohol alone (QB).

Read-outs that look alike come from different tables or passages of the source.

In general, MIC refers to the lowest concentration found to suppress growth. With `CC(O)C(=O)O` (centres unmarked) [Lactic Acid, 2-hydroxypropanoic acid], the “SI (Synergy Index, Qa/QA+Qb/QB)” value in assay [1] and in assay [2] was 1.00 throughout. Besides, the values for the MIC in assay [1] (setting [3]) and in assay [2] (setting [3]) were 6000 µg/mL and 30000 µg/mL, respectively.

As for `OCCc1ccccc1` [Phenethyl Alcohol, 2-phenylethan-1-ol], the “SI (Synergy Index, Qa/QA+Qb/QB)” value in assay [1] and in assay [2] was 1.00 throughout. The minimum inhibitory concentration (MIC) in assay [1] (setting [4]) and in assay [2] (setting [4]) was 10000 µg/mL in each case.
